Measured values from patent publication US20240052305A1, “CHEMICAL INDUCTION METHOD FOR PHOTORECEPTOR NEURON CELLS” (IREGENE THERAPEUTICS LTD, priority 2020, published 2024).
“Also recorded” adds a separate entry of the source.

How the values were obtained:
[1] = Osmotic pressure of the culture system by freezing point osmometer; assay type: physicochemical; design: osmotic pressure of the culture system: dose or concentration left out as unconfirmed
Description: A screening culture system was prepared by using different concentration gradients of sodium chloride while maintaining the optimal concentration of other components. The effect of different concentrations of sodium chloride on the osmotic pressure of culture system was detected by using an automatic freezing point osmometer (FM-8P, Shanghai Medical University Instrument Co., Ltd.), and specific operations were performed according to the product manual (FM-8P, Shanghai Medical University Instrument Co., Ltd.).

photoreceptor cells = test: Cyquant cell viability assay during induction of photoreceptor cells; assay type: cell-based, human; conditions: Cyquant test, FIGS. 6e-6g
Excerpt: The Cyquant test was also used to detect the effect of progesterone, putrescine and Optiferrin on cell viability, so as to study the effects of different concentrations of progesterone, putrescine and Optiferrin on the physiological state of cells during the induction of photoreceptor cells.

[2] = tested on: human pluripotent stem cells; test: Chemical induction of ectoderm cells from pluripotent stem cells with different concentrations of LY2157299 (morphology, Q-PCR); assay type: cell-based
Description: The ectoderm cell induction medium of the present invention was obtained by supplementing the NouvNeu-basal base medium with 55 nM-25 uM LY2157299 (Selleck) (with an optimal concentration of 7.5 uM) (preferably 100 nM, 300 nM, 500 nM, 700 nM, 900 nM, 1 uM, 2.5 uM, 5 uM, 7.5 uM, 10 uM, 12.5 uM, 15 uM, 17.5 uM, 20 uM or 22 uM). An induction method using said ectoderm cell induction medium was hereinafter referred to as a LY induction method.
Ectoderm cells were derived from human pluripotent stem cells, including embryogenic pluripotent stem cells, such as H9 cell line and human induced pluripotent stem cells. Human induced pluripotent stem cells were obtained by reprogramming from CD34+ cells according to “Reprogrammed culture medium and culture method of reprogrammed induced multipotential stem cell” (ZL 201910050800.7). In the present invention, “induced pluripotent stem cells” and “pluripotent stem cells” were used interchangeably.
During the induction of ectoderm cells, a 6-well culture plate was coated by using 50 ug/ml polylysine (SIGMA, P6407), and incubated in an incubator at 37° C. for more than 3 hours; then further coated by 5 ug/ml laminin (Laminin, I2020, SIGMA ALDRICH), and incubated in an incubator at 37° C. for more than 3 hours after plating. After the pluripotent stem cells reached 70% coverage, they were digested with EDTA at 37° C. for 5 min, and the cell digestion was terminated with DMEM. After washing and centrifugation, the cells were re-plated in the T25 culture plate at 2×10^5 cells per flask. The neural stem cell induction medium of the present invention was used for induction, and replaced with fresh induction medium every day until lamellar ectoderm cells were formed.
The effect of different concentrations of LY2157299 on the formation of ectoderm cells was detected by Q-PCR. The ectoderm cells obtained from the induced pluripotent stem cells in Example 2 by using different concentrations of LY2157299 in the LY induction method and LSB induction method were respectively extracted with RNeasy Mini or Micro Kit (QIAGEN) for total RNA, and cDNA was synthesized by […] RNA via SuperScript III First-Strand Synthesis System (Invitrogen). SYBR Premix Ex Taq (TaKaRa) and Thermal Cycler Dice Real Time System (TaKaRa) were used for labeling and reaction by Quantitative PCR, and beta-Actin was used as internal control. All data were analyzed by delta-Ct method. Triplicates were used for each group of experiments, and ANOVA was performed.

ectoderm cells [3] = test: Differentiation of the ectoderm cells into neural stem cells (neural rosettes, immunofluorescence, Q-PCR); assay type: cell-based, human
Description: Ectoderm cells could be further cultured to form neural stem cells. In order to identify this ability of ectoderm cells, the ectoderm cells obtained in Example 2.1 were further cultured in vitro by using a NouvNeu-basal base medium supplemented with 7.5 uM LY2157299 and 0.5-20 uM JW55 (with an optimal concentration of 5 uM) until a neural rosette-like structure was formed. The LSB induction method was used as a control. […]
Transcription changes of different marker genes during induction from ectoderm cells to neural stem cells were detected by Q-PCR. […] SYBR Premix Ex Taq (TaKaRa) and Thermal Cycler Dice Real Time System (TaKaRa) were used for labeling and reaction by Quantitative PCR, and beta-Actin was used as internal control. All data were analyzed by delta-Ct method. […]

ectoderm cells [4] = test: Differentiation of ectoderm cells into photoreceptor neuron cells with AM580 (morphology, Q-PCR, immunofluorescence); assay type: cell-based, human
Description: The ectoderm cells obtained by the NouvNeu system in Example 2 were subjected to directed differentiation in NouvNeu medium. For differentiation, a 6-well culture plate was coated by 50 ug/ml poly-lysine (SIGMA, P6407), incubated in an incubator at 37° C. for more than 3 hours until cells were seeded.
The photoreceptor neuron cell induction medium of the present invention was obtained by supplementing the NouvNeu-basal base medium with 55 nM-25 uM LY2157299 (with an optimal concentration of 7.5 uM) (preferably 100 nM, 300 nM, 500 nM, 700 nM, 900 nM, 1 uM, 2.5 uM, 5 uM, 7.5 uM, 10 uM, 12.5 uM, 15 uM, 17.5 uM, 20 uM or 22 uM) and 0.05-0.95 uM AM580 (Selleck) (with an optimal concentration of 0.5 uM) (preferably 0.08 uM, 0.09 uM, 0.1 uM, 0.2 uM, 0.3 uM, 0.5 uM, 0.6 uM, 0.7 uM, 0.8 uM, 0.9 uM). The cells were cultured until photoreceptor neuron cell were formed. A control experiment was performed by adding 0.5 uM retinoic acid to the NouvNeu medium, hereinafter referred to as RA.
The screening test of AM580 concentration was carried out with reference to Example 2.3, and the expression difference of photoreceptor neuron cells obtained by using different concentrations of AM580 in the AM580 induction method and the LSB induction method was compared. See Table 2 and Table 4 for the details of primers used. […] In combination with the effect of AM580 on the expression of photoreceptor neuron-specific genes shown in FIG. 4, it could be concluded that the concentrations of AM580 used in the present invention are within the range of optimal concentration.
The medium was replaced with fresh medium every 3 days until day 21. The conditions for culture were at 37° C., 5% CO2 (Panasonic, MCO-18AC). After the induction was completed, the samples in experimental group and control group were respectively identified by immunofluorescence staining as follows: cells were fixed with 4% paraformaldehyde at room temperature for 40 minutes, washed twice with DPBS buffer; then permeabilized with 0.1% Triton X-100 for 5 minutes, washed twice with DPBS buffer; then incubated overnight at 4° C. with DPBS buffer containing 10% horse serum and 0.1% Triton X-100; added with a primary antibody diluted in DPBS buffer containing 2% horse serum and 0.1% Triton X-100, incubated at 37° C. for two hours, and washed three times with DPBS buffer, added with a secondary antibody diluted in DPBS buffer containing 2% horse serum and 0.1% Triton X-100, and then photographed.
Transcription changes of different marker genes during induction from ectoderm cells to photoreceptor neuron cells were detected by Q-PCR. The photoreceptor cells obtained by using the present invention and different concentrations of AM580, and the photoreceptor cells obtained by the RA control induction method were respectively extracted with RNeasy Mini or Micro Kit (QIAGEN) for total RNA, and cDNA was synthesized by […] RNA via SuperScript III First-Strand Synthesis System (Invitrogen). SYBR Premix Ex Taq (TaKaRa) and Thermal Cycler Dice Real Time System (TaKaRa) were used for labeling and reaction of Quantitative PCR, and beta-Actin was used as internal control. All data were analyzed by delta-Ct method. Three replicates were used for each group of experiments, and ANOVA was performed.

[5] = tested on: human pluripotent stem cells; test: Cyquant cell viability assay during ectoderm induction, long-term culture; assay type: cell-based; conditions: for number of cells induced versus concentration: Cyquant test, FIGS. 6c-6d
Description: A screening culture system was prepared by using different concentration gradients of insulin or vitamin C while maintaining the optimal concentration of other components. Ectoderm induction was performed according to the method in Example 2.1. The cell viability was quantitatively detected by Cyquant assay to study the effects of insulin or vitamin C on the physiological state of cells during long-term cell culture. A 96-well opaque cell culture plate was coated, and then the cells are inoculated at 5×10^4 cells per well, wherein parallel triplicates were set up (the average of the three groups was calculated as the data). The steps in Example 2.1 were repeated with the culture conditions of 37° C., 5% CO2. Samples were taken at day 1, day 5, day 10 and day 20, respectively, and the cell viability detection was carried out by CyQuant Kit (Invitrogen, X12223) according to the instruction manual, and data were read by SpectraMax i3 Multi-Mode Microplate Reader (VWR, ID3-STD). […] Therefore, in combination with cost factors, the insulin or vitamin C in the basal medium of the present invention was the optimal concentration.

[6] = tested on: photoreceptor neuron cells; test: Screening test of vitamin B12 concentration (Q-PCR of photoreceptor neuron cells); assay type: cell-based, human
Description: The screening test of vitamin B12 concentration was carried out with reference to Example 2.3, and the expression difference of photoreceptor neuron cells obtained by using different concentrations of vitamin B12 was compared. See Table 2 and Table 4 for the details of primers used. […] Therefore, the concentration of vitamin B12 used in the present invention was the optimal concentration.

## [Cl-].[Na+] [sodium chloride]
[1]; concentration gradients, FIG. 6a
  osmotic pressure of the culture system versus concentration: increased linearly
[1]; sodium chloride concentration
  osmotic pressure of the culture system: > 320 mOsm/kg

## Optiferrin: component of the NouvNeu-basal base medium (SIGMA)
Photoreceptor cells
  cell proliferation rate versus concentration: positively correlated

## Cc1cccc(-c2nn3c(c2-c2ccnc4ccc(C(N)=O)cc24)CCC3)n1 [LY2157299, 4-(2-(6-methylpyridin-2-yl)-5,6-dihydro-4H-pyrrolo[1,2-b]pyrazol-3-yl) quinoline-6-carboxamide]
[2]; Q-PCR, FIG. 2f
  ectoderm markers versus concentration: positively correlated
[2]; Q-PCR, FIG. 2g
  apoptotic markers versus concentration: positively correlated
[2]; appropriate concentration, FIG. 2d
  formation of ectoderm cells (morphology): uniformly differentiated ectoderm cells
[2]; excessively high concentration, FIG. 2e
  formation of ectoderm cells (morphology): promote the differentiation of ectoderm cells into neural cells
[2]; high concentration
  cell apoptosis: induced cell apoptosis
[2]; induction of ectoderm cells, screening of different concentrations (FIG. 2)
  optimal concentration of LY2157299: 7.5 µM
[2]; low concentration, FIG. 2c
  formation of ectoderm cells (morphology): differentiation into mixed cell including ectodermal cells; also recorded: the ectoderm could not be completely formed
Ectoderm cells [3]; Q-PCR, FIGS. 1e-1f
  expression of neural stem cell markers compared with the control method: slightly increase the expression of neural stem cell markers
Ectoderm cells [3]; immunofluorescence staining, FIGS. 1a-1d
  neural stem cell markers after formation of neural rosettes: can express neural stem cell markers Pax6 and Nestin

## CC1(C)CCC(C)(C)c2cc(C(=O)Nc3ccc(C(=O)O)cc3)ccc21 [AM580]
Ectoderm cells [4]; Q-PCR, FIG. 3f
  marker PAX6 versus concentration: positively correlated
Ectoderm cells [4]; Q-PCR, FIG. 3g
  apoptotic markers versus concentration: positively correlated
Ectoderm cells [4]; Q-PCR, compared with RA control, FIG. 4
  expression of photoreceptor cell-specific marker genes: could induce the expression of multiple photoreceptor cell-specific marker genes, which was not significantly lower than that of the RA control
Ectoderm cells [4]; appropriate concentration, FIG. 3d
  morphology of differentiated cells: uniformly differentiated photoreceptor cells with short axons
Ectoderm cells [4]; concentration too high
  apoptosis: lead to apoptosis
Ectoderm cells [4]; excessively high concentration, FIG. 3e
  morphology of differentiated cells: results in stress in differentiated cells
Ectoderm cells [4]; fluorescent immunoassay, FIG. 5
  protein expression of photoreceptor markers: same protein expression patterns with that in the RA control group
Ectoderm cells [4]; induction of photoreceptor cells, screening of different concentrations (FIG. 3)
  optimal concentration of AM580: 0.5 µM
Ectoderm cells [4]; low concentration, FIG. 3c
  morphology of differentiated cells: differentiation into mixed cells including cortical neurons

## CC(=O)[C@H]1CC[C@H]2[C@@H]3CCC4=CC(=O)CC[C@]4(C)[C@H]3CC[C@]12C [progesterone]
Photoreceptor cells
  cell proliferation rate versus concentration: positively correlated

## insulin: component of the NouvNeu-basal base medium
[5]
  number of cells induced versus concentration: positively correlated
[5]; high concentration
  number of cells compared with the optimal concentration: not significantly different

## NCCCCN [putrescine]
Photoreceptor cells
  cell proliferation rate versus concentration: positively correlated

## vitamin B12
[6]; Q-PCR, FIG. 6b
  photoreceptor non-specific marker PAX6 versus concentration: positively correlated
[6]; concentration too high
  relative expression of PAX6: decrease in the relative expression of PAX6

## O=C1O[C@H]([C@@H](O)CO)C(O)=C1O [vitamin C, L-ascorbic acid]
[5]
  number of cells induced versus concentration: positively correlated
[5]; high concentration
  number of cells compared with the optimal concentration: not significantly different
  state of cells in the late stage of induction: caused the cells to shed in pieces
